Common to all, as to assay type: ADME
The nature of data set [1]: Substrate activity at recombinant His-tagged Lactobacillus casei alpha L-fucosidase expressed in Escherichia coli […] assessed as formation of p-nitrophenyl products at 5 mM measured by UV spectrometer assay. The note with it: lacticaseibacillus casei, 5000 µM.
The nature of data set [2]: Substrate activity at recombinant His-tagged Bacteroides fragilis alpha L-fucosidase expressed in Escherichia coli BL21(DE3) assessed as formation of p-nitrophenyl products at 5 mM measured by UV spectrometer assay. The note with it: 5000 µM.
A short description of data set [3]: Substrate activity at recombinant His-tagged Bacteroides fragilis alpha L-fucosidase expressed in Escherichia coli BL21(DE3) assessed as de-fucosylation of N-glycan at 5 mg/ml measured after 21 hrs by LC/MS analysis.
The nature of data set [4]: Substrate activity at recombinant His-tagged Lactobacillus casei alpha L-fucosidase expressed in Escherichia coli […] assessed as de-fucosylation of N-glycan at 5 mg/ml measured after 21 hrs by LC/MS analysis. Conditions: lacticaseibacillus casei; call rule not given here.

The structures appear in SMILES notation.

In the case of `C[C@@H]1O[C@@H](Oc2ccc([N+](=O)[O-])cc2)[C@@H](O)[C@H](O)[C@@H]1O`, the Activity result was “Not Active” in data set [1] and “Active” in data set [2].

As for `CC(=O)N[C@@H]1[C@@H](O)[C@H](O[C@@H]2O[C@H](CO)[C@@H](O[C@@H]3O[C@H](CO[C@H]4O[C@H](CO)[C@@H](O)[C@H](O)[C@@H]4O[C@@H]4O[C@H](CO[C@@H]5O[C@H](CO[C@]6(C(=O)O)C[C@H](O)[C@@H](NC(C)=O)C([C@H](O)[C@H](O)CO)O6)[C@H](O)[C@H](O)[C@H]5O)[C@@H](O)[C@H](O)[C@H]4NC(C)=O)[C@@H](O)[C@H](O[C@H]4O[C@H](CO)[C@@H](O)[C@H](O)[C@@H]4O[C@@H]4O[C@H](CO)[C@@H](O[C@@H]5O[C@H](CO[C@]6(C(=O)O)C[C@H](O)[C@@H](NC(C)=O)C([C@H](O)[C@H](O)CO)O6)[C@H](O)[C@H](O)[C@H]5O)[C@H](O)[C@H]4NC(C)=O)[C@@H]3O)[C@H](O)[C@H]2NC(C)=O)[C@@H](CO[C@H]2O[C@H](C)[C@H](O)[C@H](O)[C@H]2O)O[C@H]1NC(=O)CNC(=O)C[C@H](NC(=O)[C@H](CCC(N)=O)NC(=O)CN)C(=O)N[C@@H](CC(=O)O)C(=O)N[C@H](C(=O)N[C@@H](CO)C(=O)N[C@@H](CCC(N)=O)C(=O)N[C@H](C(=O)N[C@@H](CO)C(=O)N[C@@H](CO)C(=O)N1CCC[C@H]1C(=O)N[C@@H](CO)C(=O)N[C@@H](CC(C)C)C(=O)N1CCC[C@H]1C(=O)N[C@@H](CCCCN)C(=O)N[C@H](C(=O)NCC(=O)NCC(=O)N[C@@H](CO)C(=O)O)[C@@H](C)O)[C@@H](C)O)[C@@H](C)O` (some centres undefined), the Activity result in data set [3] and in data set [4] was “Not Active” in each case.
